{"source": "paper PMC7143284", "about": "“A Phenotarget Approach for Identifying an Alkaloid Interacting with the Tuberculosis Protein Rv1466” (Marine Drugs, 2020)", "molecular_target": "Rv1466 (Mycobacterium tuberculosis, UniProt O53157)", "sequence (O53157 1-115 limits assumed)": "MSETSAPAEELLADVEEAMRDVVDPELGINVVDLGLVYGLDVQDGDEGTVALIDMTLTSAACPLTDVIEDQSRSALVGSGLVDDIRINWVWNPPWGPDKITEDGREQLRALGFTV", "assay": "[…]; bound species is […] Da (half of the disulfide dimer)", "format": "binding"}
{"compound": "COc1ccc(-c2nc(N)n(C)c2SSc2c(-c3ccc(OC)cc3)nc(N)n2C)cc1", "note": "[polycarpine]", "values": [{"measurement": "Kd", "result": "5.3 ± 0.4", "unit": "µM"}]}
